Reference: US20180112258A1, “MEDICAL USES AND METHODS FOR TREATING CANCER USING MONOPOLAR SPINDLE 1 (MPS1) KINASE INHIBITORS” (THE INSTITUTE OF CANCER RESEARCH: ROYAL CANCER HOSPITAL, priority 2015, published 2018)
Changes are numbered by the printed parent chain. Where two headings read alike, the source gives them in different places.

Assays:
[1] = system: parental HCT116 cells; experiment: Flow cytometry cell cycle profiles, parental HCT116; assay type: cell-based, human; details: parental, 24 hours
Procedure: Cells were fixed overnight at −20° C. in 70% ethanol, washed in PBS, then incubated in 10 μg/ml propidium iodide and 0.5% RNase (Sigma) for 30 min and then analysed using LSRII flow cytometer (BD Biosciences).

[2] = target: T1, recombinant full-length MPS1 p.C604W (Homo sapiens, UniProt P33981, C604W); experiment: Recombinant MPS1 kinase assay (electrophoretic mobility shift), p.C604W; assay type: biochemical; details: C604W, mean ± SD, quadruplicate
T1 construct: made in house; host or cells: Sf9 insect cells (baculovirus, modified pFastBac1)
T1 sequence (P33981 1-857 C604W): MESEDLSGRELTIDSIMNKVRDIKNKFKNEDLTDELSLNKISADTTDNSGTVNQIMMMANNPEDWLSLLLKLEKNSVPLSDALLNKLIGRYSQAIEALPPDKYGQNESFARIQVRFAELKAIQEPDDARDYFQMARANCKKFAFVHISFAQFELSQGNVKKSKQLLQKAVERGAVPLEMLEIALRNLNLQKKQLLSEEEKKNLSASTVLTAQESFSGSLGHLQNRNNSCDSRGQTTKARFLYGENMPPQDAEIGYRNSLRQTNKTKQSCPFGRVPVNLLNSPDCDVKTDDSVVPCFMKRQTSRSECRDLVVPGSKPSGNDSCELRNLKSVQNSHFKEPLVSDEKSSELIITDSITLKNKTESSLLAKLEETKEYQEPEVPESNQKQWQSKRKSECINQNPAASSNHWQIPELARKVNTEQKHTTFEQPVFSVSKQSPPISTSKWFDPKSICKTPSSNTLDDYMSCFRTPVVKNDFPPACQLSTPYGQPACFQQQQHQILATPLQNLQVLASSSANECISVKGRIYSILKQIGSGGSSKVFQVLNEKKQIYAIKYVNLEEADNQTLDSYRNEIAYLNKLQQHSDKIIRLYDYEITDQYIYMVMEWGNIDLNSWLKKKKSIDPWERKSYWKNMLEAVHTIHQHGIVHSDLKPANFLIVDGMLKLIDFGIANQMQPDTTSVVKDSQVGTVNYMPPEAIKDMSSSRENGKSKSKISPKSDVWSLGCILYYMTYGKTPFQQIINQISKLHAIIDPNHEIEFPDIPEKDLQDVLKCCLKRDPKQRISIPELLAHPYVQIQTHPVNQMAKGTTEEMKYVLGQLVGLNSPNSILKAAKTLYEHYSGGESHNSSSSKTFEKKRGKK
Procedure: (§1) For high ATP concentration assays, 1 mM ATP was used. An ECHO® 550 (Labcyte Inc) acoustic dispenser was used to generate duplicate 8 point dilution curves directly into 384-well low-volume polystyrene assay plates (Corning Life Sciences). The reaction was carried out for 90 min at room temperature.

[3] = target: T2, recombinant full-length wild-type MPS1 (Homo sapiens, UniProt P33981); experiment: Recombinant MPS1 kinase assay (electrophoretic mobility shift), WT; assay type: biochemical; details: mean ± SD, quadruplicate
T2 construct: For protein expression of full-length MPS1 proteins, Sf9 insect cells were grown at 27° C; made in house; host or cells: Sf9 insect cells (baculovirus, modified pFastBac1)
T2 sequence (P33981 1-857): T1 sequence (P33981 1-857 C604W) with W604C
Procedure: as §1

[4] = system: NvR12 HCT116 cells (p.C604W); experiment: Flow cytometry cell cycle profiles, NvR12; assay type: cell-based, human; details: NvR12, 24 hours
Procedure: Cells were fixed overnight at −20° C. in 70% ethanol, washed in PBS, then incubated in 10 μg/ml propidium iodide and 0.5% RNase (Sigma) for 30 min and then analysed using LSRII flow cytometer (BD Biosciences). To stain for mitosis, cells were incubated for 1 hour at 4° C. with anti-MPM2 antibodies (Millipore, 05-368), then 1 hour at 4° C. with FITC-conjugated secondary antibodies (Life technology).

[5] = ATP at Km, read-out: IC50 values at ATP Km
[6] = IC50 values at 1 mM ATP, 1 mM ATP

SMILES: Cc1ncc(-c2ccc(Nc3cc4c(cn3)cc(-c3cnn(C)c3)n4C(=O)OC(C)C)cc2)n1C [Compound 2, Isopropyl 6-(4-(1,2-dimethyl-1H-imidazol-5-yl)-2-phenylamino)-2-(1-methyl-1H-pyrazol-4-yl)-1H-pyrrolo[3,2-c]pyridine-1-carboxylate]
- concentration causing loss of cell cycle profiles [1]: 600 nM
- IC50 [2, 5]: 13.3 ± 2.9 nM
- IC50 [2, 6]: 16.3 ± 4 nM
- IC50 [3, 5]: 3.3 ± 1.1 nM
- IC50 [3, 6]: 60 ± 20 nM
- concentration causing loss of cell cycle profiles [4]: 100 nM
